Assay results published in patent publication US10426850B2, “Collagen mimetic peptides for targeting collagen strands for in vitro and in vivo imaging and therapeutic use” (The Johns Hopkins University, priority 2011, dated 2019).

Assays:
[1] = Circular dichroism spectra and thermal melting of CMPs; type: physicochemical
Experimental: Circular dichroism spectroscopy. CD spectra were collected on JASCO 715 spectrophotometer equipped with a JASCO PTC-348 WI temperature controller and quartz cells (0.1 mm path length). CMP solutions (320 μL, 150 μM in 1×PBS) were stored at 4° C. for at least 24 hours before measurement. For photo-decaging, samples were exposed to 365 nm UV light for at least 30 minutes before the 4° C. incubation. The thermal melting studies were performed by measuring the ellipticity at 225 nm with 60° C./hr heating rate. Raw CD signal was normalized to mean residue ellipticity based on the peptide's length and concentration (Biopolymers 95:94-104 (2011)). Melting temperatures (Tm) were determined by fitting the mean residue ellipticity to a two-state model (Org Lett 8:4735-4738 (2006)). To measure the refolding kinetics, CMP solution was thermally denatured at 75° C. for 10 minutes in a cuvette and rapidly quenched to 25° C. in an ice-water bath, after which the CD signal at 225 nm was observed over time at 25° C. The CD spectra of intact and MMP-1 cleaved type I collagen (FIG. 12) was measured in 90 μg/mL protein solutions in 20 mM acetic acid buffer at 22° C. The 37° C. thermal stability profile (FIG. 2E, inset) was generated by monitoring the ellipticity at 222 nm immediately after transferring the cuvette to a temperature controlled cuvette holder pre-set to 37° C. The Tm values reported in this study are approximately 10° C. higher than the equilibrium Tm due to high heating rate (60° C./hr) (Biopolymers 73:682-688 (2004)).
Synthesis of fluorescently labeled collagen mimetic peptides. Non-caged CMPs were synthesized using Fmoc-mediated solid-phase chemistry by manual or automated synthesis as described previously.2,4 The caged NB(GPO)9 (SEQ ID NO: 12) was prepared by introducing Fmoc(N-o-nitrobenzyl)Gly-OH (synthesized according to Tatsu et al. 2,5) in the middle of the standard solid-phase peptide synthesis. The Hyp residue following the NBGly was conjugated using 9 molar equiv of Fmoc-Hyp(tBu)-OH, 8.8 molar equiv of PyBroP, and 20 molar equiv of DIPEA for over 24 hr to overcome the low reactivity caused by the steric hindrance of the NB cage group. The remaining sequence including the GGG spacer was completed by HBTU chemistry, followed by on-resin labeling with 6 molar equivalent of CF or TAMRA activated by 6 molar equivalent of PyAOP for over 24 hr. The full length fluorescent CMPs were cleaved from resin by treating the resin with TFA/TIS/H2O (95:2.5:2.5) for 3 hr and the cleaved peptide was purified by reverse phase HPLC on a Vydac C18 column using a linear gradient mixture of water (0.1% TFA) and acetonitrile (0.1% TFA) (5-45% acetonitrile gradient in 40 min). The purified peptides were analyzed by MALDI-TOF MS (FIG. 27): m/z calculated 2975.1 [M+Na+] for CF(GPO)9 (SEQ ID NO: 10), found 2975.0 [M+Na+]; m/z calculated 2975.1 [M+Na+] for ^SG9P9O9 (SEQ ID NO: 5), found 2973.5 [M+Na+]; m/z calculated 3110.2 [M+Na+] for CF^NB(GPO)9 (SEQ ID NO: 4), found 3109.4 [M+Na+]; m/z calculated 2975.1 [M+Na+] for CF(GPO)9 (SEQ ID NO: 10) [CF^NB(GPO)9 (SEQ ID NO: 4) after UV decaging], found 2974.1 [M+Na+]; m/z calculated 3142.3 [M+H+] for TAMRA-NB(GPO)9 (SEQ ID NO: 12), found 3141.4 [M+H+]; m/z calculated 3007.2 [M+H+] for TAMRA-(GPO)9 (SEQ ID NO: 15), [TAMRA-NB(GPO)9 (SEQ ID NO: 12) after decaging], found 3006.3 [M+H+]. CD spectra and CD melting curves of the labeled CMPs were acquired in PBS solutions using a JASCO 715 CD spectrophotometer. The solutions were incubated for at least 24 hours at 4° C. prior to CD experiment to ensure folding (FIG. 28).

[2] = test system: collagen types I, II and IV; experiment: SDS-PAGE staining by heat activated fluorescent CMP, collagen types; type: binding, rat (I), bovine (II), mouse (IV); details: 6 μM, 2 μg protein per lane
Description: Acid soluble rat-tail type I collagen, bovine type II collagen, and mouse type IV collagen were purchased from BD Bioscience (San Jose, Calif.). Complement component C1q from human serum, fibronectin from bovine plasma, and laminin from Engelbreth-Holm-Swarm murine sarcoma basement membrane were purchased from Sigma-Aldrich. ProMMP-1, and p-aminophenylmercuric acetate were acquired from EMD millipore. Human umbilical vein endothelial cells (HUVECs) and EGM-2 cell growth media were obtained from Lonza (Walkersville, Md.). Precast NuPAGE® Novex 4-12% Bis-Tris Gel (1.0 mm, 12 well), Novex® Sharp unstained protein standard, and SDS-PAGE running buffer, sample buffer, and other SDS-PAGE reagents were purchased from Life Technologies.
SDS-PAGE staining and imaging. Proteins were resolved on NuPAGE® Novex 4-12% bis-tris gels under denaturating conditions using an XCell SureLock™ Mini-Cell electrophoresis system (Life Technologies). NuPAGE® MOPS SDS running buffer containing 50 mM MOPS, 50 mM Tris Base, 0.1% SDS, and 1 mM EDTA (pH 7.7) was used. Protein samples were heated to 85° C. in NuPAGE® LDS sample denaturing buffer for 10 min before the gel loading. Unless specified otherwise, 2 μg of protein was used for each lane. The gels were run at 200 V for 50-60 min. Reducing conditions were used only for gels carrying type IV collagen, HUVECs lysate, and C1q, for which NuPAGE® reducing agent was mixed with the protein samples, and 500 μL of NuPAGE® antioxidant was added to the cathode buffer before loading. After electrophoresis, the gels were washed by deionized water briefly three times to remove the remaining SDS. […] The fluorescence intensities of the protein bands were quantified using GE ImageQuant™ TL software. After fluorescence imaging, all gels were further stained with coomassie brilliant blue (CB) G-250 (Bio-Rad) for 2-3 hr followed by washing, and imaging under white light illumination using a Gel Doc EQ system (BioRad).

Substance: CF-GGG-(GPO)9 [CF(GPO)9]
- melting temperature (Tm), CD melting curve ([1]; non-caged peptide in PBS, CD at 225 nm, 1° C./min heating rate): 75 °C
- staining of collagen bands [2]: binds to collagen types I, II and IV

Substance: CF-GGG-(GPO)4^NBGPO(GPO)4 [CF^NB(GPO)9]
- Tm (CD melting curve, triple helix) ([1]; after UV exposure (photo-decaged), heating rate 60° C./hr, Tm about 10° C. higher than equilibrium Tm): 75 °C
- triple helical folding capacity (CD melting) ([1]; after UV exposure / photo-cleavage of NB cage): regain its full triple helical folding capacity
- triple helical folding capacity (CD melting) ([1]; caged, before UV exposure): completely suppressed the CMP's ability to fold into a triple helix

Substance: CF-GGG-PGOGPGPOPOGOGOPPGOOPGGOOPPG [CF^SG9P9O9, reference compound]
- triple helical folding capacity (CD melting) ([1]; sequence-scrambled peptide): lack of triple helical structure
- staining of collagen bands [2]: virtually no binding affinity to the collagen bands
- staining of collagen bands ([2]; listed as CFSG9P9O9): revealed no collagen bands
